From US7407940B2, “Antimicrobial hexapeptides” (Helix BioMedix Inc., priority 2005, dated 2008)
Where no end group is shown, it is not given here. [ ]: non-standard residue; d: D form. The star is where a group is joined. Stearoyl = CCCCCCCCCCCCCCCCCC(=O)*; Tridecanoyl = CCCCCCCCCCCCC(=O)*; Heptanoyl = CCCCCCC(=O)*; Octanoyl = CCCCCCCC(=O)*; Cap = not defined here

Columns and labels:
[1] = system: Salmonella typhimurium 14028S; test: MIC, broth microdilution, S. typhimurium; type: cell-based; set-up: unit not given here; details: for Anti-microbial activity (MIC): S. typhimurium 14028S; for MIC, lipid length SAR: S.typhimurium
Method: (§1) MICs (minimal inhibitory concentrations) were determined for the hexapeptides of interest using a slightly modified version of the NCCLS (National Committee for Clinical Laboratory Standards) broth microdilution method as described previously (Steinberg et al., AAC 41: 1738, 1997). Briefly, antimicrobial agents were prepared as 10× concentrates in the most appropriate solvent. For the hexapeptide, 0.01% acetic acid containing 0.2% bovine serum albumin as a carrier protein was used. Inocula were prepared by resuspending colonies from a BAP (please spell out this term) in medium and adjusting the suspension to match that of a 0.5 McFarland standard. The suspension was diluted into fresh medium (as recommended by NCCLS for the organism) to give 2×10^5 to 7×10^5 CFU/ml for bacteria or 2×10^3 to 7×10^3 CFU/ml for Candida. After dispensing 100 μl aliquots of the microbial suspension into each well of a 96-well polypropylene microtiter plate, 11 μl of test compound was added. The MIC was defined as the lowest concentration of drug which prevented visible turbidity after 16 to 20 hours (bacteria) or 46 to 50 hours (Candida) at 35° C.

[2] = system: Escherichia coli UB1005; test: MIC, broth microdilution, E. coli; type: cell-based; set-up: unit not given here
Method: as §1

[3] = system: MRSA; test: Kill curve in 10% sheep serum-phosphate buffer against MRSA; type: cell-based, S. aureus; details: 10% serum / biological environments
[4] = system: Pseudomonas aeruginosa; type: cell-based; set-up: MIC, lipid length SAR: unit not given here; details: P.aeruginosa
Method: as §1

[5] = system: P. acnes; test: Activity against extended panel of P. acnes; type: cell-based; set-up: unit not given here
From the text: A very promising application for short bioactive peptides is for dermatological indications such as acne.

Q: What does the source list for LLKWPW-NH2 [SEQ ID NO: 33]?
A: Anti-microbial activity (MIC) [1]: >128; Anti-microbial activity (MIC) [2]: >128

Q: VKVKPV-NH2 [SEQ ID NO: 13] was tested. Which “Anti-microbial activity (MIC)” value [1] did it give?
A: >128

Q: What about the “Anti-microbial activity (MIC)” value [2] of the same substance?
A: >128

Q: For “SEQ ID NO:56 (Octanoyl-KWKWFW-NH2; SMILES CCCCCCCC(=O)N[C@@H](CCCCN)C(=O)N[C@@H](Cc1c[nH]c2ccccc12)C(=O)N[C@@H](CCCCN)C(=O)N[C@@H](Cc1c[nH]c2ccccc12)C(=O)N[C@@H](Cc1ccccc1)C(=O)N[C@@H](Cc1c[nH]c2ccccc12)C(N)=O)”, which “ability to kill S. aureus in serum (in words)” value [3] is on record?
A: does not perform well in biological environments

Q: With “Tri-KFKWPW-NH2 (Tridecanoyl-KFKWPW-NH2; SMILES CCCCCCCCCCCCC(=O)N[C@@H](CCCCN)C(=O)N[C@@H](Cc1ccccc1)C(=O)N[C@@H](CCCCN)C(=O)N[C@@H](Cc1c[nH]c2ccccc12)C(=O)N1CCC[C@H]1C(=O)N[C@@H](Cc1c[nH]c2ccccc12)C(N)=O) [SEQ ID NO: 80]” as the substance, how does the “MIC, lipid length SAR” value [4] read?
A: 32

Q: What about the “MIC, lipid length SAR” value [1] of the same substance?
A: 32-64

Q: “Hep-KFKWPW-NH2 (Heptanoyl-KFKWPW-NH2; SMILES CCCCCCC(=O)N[C@@H](CCCCN)C(=O)N[C@@H](Cc1ccccc1)C(=O)N[C@@H](CCCCN)C(=O)N[C@@H](Cc1c[nH]c2ccccc12)C(=O)N1CCC[C@H]1C(=O)N[C@@H](Cc1c[nH]c2ccccc12)C(N)=O) [SEQ ID NO: 69]” was tested. Which “MIC, lipid length SAR” value [4] did it give?
A: 128

Q: What about the “MIC, lipid length SAR” value [1] of the same substance?
A: 128

Q: Which results are given for KPVWPW-NH2 [SEQ ID NO: 30]?
A: Anti-microbial activity (MIC) [1]: >128; Anti-microbial activity (MIC) [2]: >128

Q: For FAKLAK-NH2 [SEQ ID NO: 20], which “Anti-microbial activity (MIC)” value [1] is on record?
A: >128

Q: What about the “Anti-microbial activity (MIC)” value [2] of the same substance?
A: >128

Q: Which “Anti-microbial activity (MIC)” value [1] does the source give for KPWKFK-NH2 [SEQ ID NO: 29] here?
A: >128

Q: And the “Anti-microbial activity (MIC)” value [2]?
A: >128

Q: Which “Anti-microbial activity (MIC)” value [1] does the source give for FKFKPV-NH2 [SEQ ID NO: 12] here?
A: >128

Q: What about the “Anti-microbial activity (MIC)” value [2] of the same substance?
A: >128

Q: How did the “Anti-microbial activity (MIC)” value [1] turn out when KLAKLL-NH2 [SEQ ID NO: 27] was run?
A: >128

Q: And the “Anti-microbial activity (MIC)” value [2]?
A: >128

Q: With VAKKWK-NH2 [SEQ ID NO: 25] as the substance, how does the “Anti-microbial activity (MIC)” value [1] read?
A: >128

Q: What about the “Anti-microbial activity (MIC)” value [2] of the same substance?
A: >128

Q: Which results are given for KWKKLA-NH2 [SEQ ID NO: 22]?
A: Anti-microbial activity (MIC) [1]: >128; Anti-microbial activity (MIC) [2]: >128

Q: For “Cap-KFKWPW-NH2 (not fully specified; printed as Cap-KFKWPW-NH2; reading uncertain) [SEQ ID NO: 71]”, which “MIC, lipid length SAR” value [4] is on record?
A: >128

Q: And the “MIC, lipid length SAR” value [1]?
A: 128

Q: Which results are given for KWKKPV-NH2 [SEQ ID NO: 17]?
A: Anti-microbial activity (MIC) [1]: >128; Anti-microbial activity (MIC) [2]: >128

Q: What does the source list for LAKLAK-NH2 [SEQ ID NO: 28]?
A: Anti-microbial activity (MIC) [1]: >128; Anti-microbial activity (MIC) [2]: >128

Q: With KWKFKF-NH2 [SEQ ID NO: 23] as the substance, how does the “Anti-microbial activity (MIC)” value [1] read?
A: >128

Q: What about the “Anti-microbial activity (MIC)” value [2] of the same substance?
A: >128

Q: Which results are given for RKTWPW-NH2 [SEQ ID NO: 15]?
A: Anti-microbial activity (MIC) [1]: >128; Anti-microbial activity (MIC) [2]: >128

Q: With “Ste-KFKWPW-NH2 (Stearoyl-KFKWPW-NH2; SMILES CCCCCCCCCCCCCCCCCC(=O)N[C@@H](CCCCN)C(=O)N[C@@H](Cc1ccccc1)C(=O)N[C@@H](CCCCN)C(=O)N[C@@H](Cc1c[nH]c2ccccc12)C(=O)N1CCC[C@H]1C(=O)N[C@@H](Cc1c[nH]c2ccccc12)C(N)=O) [SEQ ID NO: 74]” as the substance, how does the “MIC, lipid length SAR” value [4] read?
A: >128

Q: And the “MIC, lipid length SAR” value [1]?
A: >128

Q: “Oct-kfkwpw-HN2 (Octanoyl-[dK][dF][dK][dW][dP][dW]-NH2; SMILES CCCCCCCC(=O)N[C@H](CCCCN)C(=O)N[C@H](Cc1ccccc1)C(=O)N[C@H](CCCCN)C(=O)N[C@H](Cc1c[nH]c2ccccc12)C(=O)N1CCC[C@@H]1C(=O)N[C@H](Cc1c[nH]c2ccccc12)C(N)=O) [SEQ ID NO: 81]” was tested. Which “Activity (MIC) against P. acnes” value ([5]; ATCC 6921) did it give?
A: 4

Q: What about the “Activity (MIC) against P. acnes” value ([5]; ATCC 6922) of the same substance?
A: 8

Q: What about the “Activity (MIC) against P. acnes” value ([5]; ATCC 6923) of the same substance?
A: 8

Q: What about the “Activity (MIC) against P. acnes” value ([5]; ATCC 11828) of the same substance?
A: 8

Q: And the “Activity (MIC) against P. acnes” value ([5]; ATCC 12930)?
A: 2

Q: What about the “Activity (MIC) against P. acnes” value ([5]; ATCC 25746) of the same substance?
A: 0.25

Q: And the “Activity (MIC) against P. acnes” value ([5]; ATCC 29399)?
A: 8

Q: What about the “Activity (MIC) against P. acnes” value ([5]; ATCC 33179) of the same substance?
A: 16

Q: What about the “Activity (MIC) against P. acnes” value ([5]; ATCC 49929) of the same substance?
A: 0.125

Q: And the “Activity (MIC) against P. acnes” value ([5]; ATCC 51277)?
A: 8
